How the values were obtained:
Assay in all cases: HDAC enzyme assay, in vitro biochemical
HDAC1 = biological target: T1, HDAC1 (Homo sapiens, UniProt Q13547)
T1 construct: purchased BPS Biosciences
Protocol: (§1) In vitro biochemical assays were performed as described previously. Specifically, compounds were dissolved and diluted in assay buffer (50 mM HEPES, pH 7.4, 100 mM KCl, 0.001% Tween-20, 0.05% BSA, and 20 μM Tris (2-carboxyethyl) phosphine) to 6-fold the final concentration. […] The amount of substrate (acetyl-lysine tripeptide) used for each enzyme was equal to the Michaelis constant (Km), as determined by a titration curve. Substrate was diluted in assay buffer to 6-fold of the final concentration with 0.3 μM sequencing grade trypsin (Sigma-Aldrich). The substrate/trypsin mix was added to the enzyme/compound mix and the plate was shaken for 5 seconds and then placed into a SpectraMax M5 microtiter (Molecular Devices) plate reader. The enzymatic reaction was monitored over 30 minutes for release of […] after deacetylation of the lysine side chain in the peptide substrate, and the linear rate of the reaction was calculated.

HDAC3 = biological target: T2, HDAC3 (Homo sapiens, UniProt O15379); conditions: pre-incubated 24 hours at 4°C; n = 3; read-out: IC50 against HDAC3
T2 construct: purchased BPS Biosciences
T2 sequence (O15379 whole entry): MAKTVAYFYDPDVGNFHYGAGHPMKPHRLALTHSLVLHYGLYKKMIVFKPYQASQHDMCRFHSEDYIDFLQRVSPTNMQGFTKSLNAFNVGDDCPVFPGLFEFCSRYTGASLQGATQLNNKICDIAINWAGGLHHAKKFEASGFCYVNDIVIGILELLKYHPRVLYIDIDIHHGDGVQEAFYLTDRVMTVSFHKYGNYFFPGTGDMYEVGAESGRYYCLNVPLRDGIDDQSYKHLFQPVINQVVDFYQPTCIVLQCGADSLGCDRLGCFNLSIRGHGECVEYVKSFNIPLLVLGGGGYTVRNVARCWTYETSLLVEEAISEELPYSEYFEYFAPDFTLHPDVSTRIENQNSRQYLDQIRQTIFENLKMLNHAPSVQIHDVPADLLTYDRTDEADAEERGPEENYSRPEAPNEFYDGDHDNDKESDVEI
T2 sequence (Q9Y618 395-489 partner limits assumed): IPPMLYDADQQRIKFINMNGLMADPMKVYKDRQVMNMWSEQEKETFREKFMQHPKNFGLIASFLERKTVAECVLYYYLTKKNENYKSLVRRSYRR
Protocol: as §1

HDAC2 = biological target: T3, HDAC2 (Homo sapiens, UniProt Q92769)
T3 construct: purchased BPS Biosciences
T3 sequence (Q92769 whole entry): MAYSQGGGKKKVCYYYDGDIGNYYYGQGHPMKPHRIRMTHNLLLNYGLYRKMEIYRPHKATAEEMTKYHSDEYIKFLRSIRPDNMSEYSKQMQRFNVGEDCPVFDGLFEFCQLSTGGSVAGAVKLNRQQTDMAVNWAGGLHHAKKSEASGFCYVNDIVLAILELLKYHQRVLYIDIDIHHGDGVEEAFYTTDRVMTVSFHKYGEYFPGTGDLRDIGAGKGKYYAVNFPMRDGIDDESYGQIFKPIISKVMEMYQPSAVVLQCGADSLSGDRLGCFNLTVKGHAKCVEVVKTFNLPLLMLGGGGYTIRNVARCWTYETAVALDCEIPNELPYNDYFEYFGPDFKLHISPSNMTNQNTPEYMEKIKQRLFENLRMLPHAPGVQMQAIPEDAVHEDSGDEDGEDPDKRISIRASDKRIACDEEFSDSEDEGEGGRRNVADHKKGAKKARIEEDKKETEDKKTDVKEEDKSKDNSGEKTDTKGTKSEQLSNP
Protocol: as §1

T1 sequence (Q13547 whole entry): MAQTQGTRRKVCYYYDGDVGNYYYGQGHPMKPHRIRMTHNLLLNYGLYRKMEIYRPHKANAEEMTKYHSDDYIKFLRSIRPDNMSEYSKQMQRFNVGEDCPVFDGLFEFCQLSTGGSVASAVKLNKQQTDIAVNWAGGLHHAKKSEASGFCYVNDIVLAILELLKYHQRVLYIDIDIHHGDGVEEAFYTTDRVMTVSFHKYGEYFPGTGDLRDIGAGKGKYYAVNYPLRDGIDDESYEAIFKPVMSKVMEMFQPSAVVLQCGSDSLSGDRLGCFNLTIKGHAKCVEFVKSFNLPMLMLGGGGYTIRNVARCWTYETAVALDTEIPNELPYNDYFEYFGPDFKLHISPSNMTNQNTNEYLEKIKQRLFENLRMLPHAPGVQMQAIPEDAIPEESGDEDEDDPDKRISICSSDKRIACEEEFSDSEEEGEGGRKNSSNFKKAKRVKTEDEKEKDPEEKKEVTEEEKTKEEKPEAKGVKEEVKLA

Nc1ccc(-c2cccs2)cc1NC(=O)c1ccc2c(c1)cc(C1CC1)n2CCN1CCOCC1 [ACY-1035]
selectivity for HDAC1 over HDAC3 (HDAC1): more than 150 fold
IC50 (HDAC1; pre-incubated 24 hours at 4°C, n = 3, read-out: IC50 against HDAC1): 9.4 nM
IC50 (HDAC3): 2000 nM
selectivity for HDAC2 over HDAC3 (HDAC2): approximately 50 fold
IC50 (HDAC2; pre-incubated 24 hours at 4°C, n = 3, read-out: IC50 against HDAC2): 23 nM

Source: article PMC5218480 (PLoS ONE, 2017)
